Data set [1] concerns Mus musculus. The experiment in a line: Antiobesity activity in mouse assessed as reduction in utero fat at 0.02% administered every day through diet for 10 days measured after day 10 relative to control. The data set is classed as functional. Details: scale not given: the % may be the effect or the level left.
The subject of data set [2] is Mus musculus. Kind of data set: Antiobesity activity in mouse assessed as reduction in utero fat at 0.04% administered every day through diet for 10 days measured after day 10 relative to control. The data set is classed as functional. Details: scale not given: the % may be the effect or the level left.
Data set [3] deals with Mus musculus. Kind of data set: Antiobesity activity in mouse assessed as reduction in utero fat administered every day through diet for 10 days measured after day 10. Type of data set: functional. The settings on record: 240 h.
The nature of data set [4]: (§1) Chronic toxicity in po dosed mouse assessed as mortality administered as qd for 21 days. The data set is classed as organism-based. The settings on record: in vivo, read-out: MNTD.
Data set [5] in a line: Therapeutic index, ratio of MNTD for chronic toxicity in po dosed mouse to ED25 for antiobesity activity in mouse assessed as reduction in utero fat. The settings on record: in vivo, read-out: TI. Type of data set: organism-based.
Data set [6] concerns Mus musculus. The experiment in a line: Toxicity in mouse assessed as liver hypertrophy at 1000 mg/kg, po administered for 21 days. Details: dose 1000 mg/kg, route oral. The settings on record: in vivo, 504 h. The data set is classed as organism-based.
Data set [7] deals with Mus musculus. Kind of data set: Antiobesity activity in mouse assessed as reduction in utero fat at 0.01% administered every day through diet for 10 days measured after day 10 relative to control. Details: scale not given: the % may be the effect or the level left. Type of data set: functional.
Data set [8] relates to Mus musculus. The data set is described as §1. The data set is classed as organism-based. The note with it: in vivo, 504 h.
The subject of data set [9] is Rattus norvegicus. The experiment in a line: Antiobesity activity in rat assessed as reduction in food intake at 100 mg/kg, po qd administered for 5 days measured every day for 5 days relative to control. The data set is classed as functional. More on the design: scale not given: the % may be the effect or the level left.
The test system of data set [10] is Rattus norvegicus. The experiment in a line: Antiobesity activity in rat assessed as reduction in body weight at 100 mg/kg, po qd administered for 5 days measured on day 6 relative to control. The data set is classed as functional. Details: scale not given: the % may be the effect or the level left.
Data set [11] relates to Rattus norvegicus. The experiment in a line: Antiobesity activity in rat assessed as reduction in utero fat at 100 mg/kg, po qd administered for 5 days measured on day 6 relative to control. Type of data set: functional. Details: scale not given: the % may be the effect or the level left.
For data set [12], the system named is Rattus norvegicus. The experiment in a line: Toxicity in rat assessed as increase in adrenal weight at 100 mg/kg, po qd administered for 5 days measured on day 6 relative to control. Details: dose 100 mg/kg, route oral. The data set is classed as organism-based. The note with it: in vivo, 120 h.
For data set [13], the system named is Rattus norvegicus. Kind of data set: Toxicity in rat assessed as increase in liver weight at 100 mg/kg, po qd administered for 5 days measured on day 6 relative to control. The data set is classed as organism-based. More on the design: dose 100 mg/kg, route oral. The note with it: in vivo, 120 h.
Data set [14] is filed under the species Rattus norvegicus. The experiment in a line: Toxicity in rat assessed as lymphopenia. Type of data set: organism-based. The settings on record: in vivo.

Activity calls are given as the source filed them. No cut-off for these calls is given here.

As for `CC(C)NCC(O)COc1c(C(C)(C)C)cc(/C=C/c2ccc(O)cc2)cc1C(C)(C)C.O=C(O)/C=C\C(=O)O` (stereo unspecified), in the data set on Mus musculus [1], the Activity was found to be 20%.
For the compound `CC(C)NCC(O)COc1c(C(C)(C)C)cc(/C=C/c2ccccc2)cc1C(C)(C)C` (stereo unspecified), the result in the data set with Mus musculus [1] was inactive.
For `CC(C)NCC(O)COc1ccc(-c2ccc(Cl)cc2)cc1.Cl` (stereo unspecified), the Activity with Mus musculus [2] is reported as 23%; with Mus musculus [6] it was “Non-toxic”. Besides, the ED25 with Mus musculus [3] is 50 mg/kg. The MTD at 504 h in [4] was 25 mg/kg. Also, the selectivity ratio in data set [5] was determined as 0.5.
With `CC(C)NCC(O)COc1ccc(-c2cccs2)cc1` (stereo unspecified), the Activity in the data set with Mus musculus [7] was 34%; in the data set with Mus musculus [8] it was “Toxic”.
In the case of `CC(C)NCC(O)COc1c(C(C)(C)C)cc(/C=C/c2ccc(Br)cc2)cc1C(C)(C)C` (stereo unspecified), the Activity with Mus musculus [1] is given as 31%; in the data set on Mus musculus [6] it was “Non-toxic”. In the data set with Mus musculus [3], the ED25 worked out at 34 mg/kg. The MTD at 504 h in data set [4] is 150 mg/kg. Further, the selectivity ratio in data set [5] came out at 4.3.
For the compound `CC(C)NCC(O)COc1ccc(Oc2ccc(Cl)cc2)cc1` (stereo unspecified), the Activity with Mus musculus [1] is listed as 25%; in the data set with Mus musculus [6] it was “Non-toxic”; with Rattus norvegicus [9] it was 22%; with Rattus norvegicus [10], 1%; in the data set with Rattus norvegicus [11] it was 18%; in the data set on Rattus norvegicus [12] it was 8%. Besides, in the data set with Rattus norvegicus [13], the Activity came to 11%. Moreover, the ED25 with Mus musculus [3] stood at 18 mg/kg. Moreover, the MTD at 504 h in data set [4] came to 100 mg/kg. Besides, the selectivity ratio in [5] came to 5.5.
In the case of `COc1ccc(/C=C/c2cc(C(C)(C)C)c(OCC(O)CNC(C)C)c(C(C)(C)C)c2)cc1` (stereo unspecified), the figures for the Activity in the data set on Mus musculus [1] and with Mus musculus [6] were 26% and “Non-toxic”, respectively. For the same compound, in the data set on Mus musculus [3], the ED25 amounted to 20 mg/kg. The MTD at 504 h in data set [4] amounted to 25 mg/kg. The selectivity ratio in data set [5] was determined as 1.25.
With `C[C@H](N)Cc1ccccc1` [DEXTROAMPHETAMINE], the results for the Activity entry in the data set listed under Rattus norvegicus [14], in the data set on Mus musculus [2] and in the data set with Mus musculus [7] were “Toxic”, 59% and 34%, respectively.
Take `CC(C)NCC(O)COc1c(C(C)(C)C)cc(/C=C/c2cccc(Cl)c2)cc1C(C)(C)C` (stereo unspecified): the Activity in the data set on Mus musculus [2] is 21%; in the data set on Mus musculus [6], “Non-toxic”. Further, the ED25 in the data set on Mus musculus [3] stood at 72 mg/kg. Further, in data set [4], the MTD at 504 h is 100 mg/kg. Besides, the selectivity ratio in data set [5] turned out to be 1.4.
Turning to `CCc1cc(/C=C/c2ccccc2)cc(CC)c1OCC(O)CNC(C)C` (stereo unspecified), the Activity with Mus musculus [1] was 20%; in the data set on Mus musculus [6], “Non-toxic”. Besides, the ED25 with Mus musculus [3] is 45 mg/kg. Also, the MTD at 504 h in data set [4] was 75 mg/kg. The selectivity ratio in data set [5] was found to be 1.7.
For the compound `CC(C)NCC(O)COc1c(C(C)(C)C)cc(/C=C/c2ccc(Cl)cc2)cc1C(C)(C)C` (stereo unspecified), the Activity in the data set on Mus musculus [2] was 22%; in the data set on Mus musculus [6] it was “Non-toxic”. Also, in the data set with Mus musculus [3], the ED25 came to 100 mg/kg. Moreover, the MTD at 504 h in [4] came to 100 mg/kg. Also, the selectivity ratio in data set [5] amounted to 1.
`CC(C)NCC(O)COc1c(C(C)(C)C)cc(-c2ccc(Cl)cc2)cc1C(C)(C)C` (stereo unspecified): the Activity was 36% in the data set on Mus musculus [2] and “Non-toxic” in the data set on Mus musculus [6]. For the same compound, the ED25 with Mus musculus [3] worked out at 30 mg/kg. In addition, the MTD at 504 h in data set [4] was determined as 100 mg/kg. The selectivity ratio in data set [5] is 3.6.
Take `CC(C)NCC(O)COc1c(C(C)(C)C)cc([S+]([O-])c2ccc(Cl)cc2)cc1C(C)(C)C.O=C(O)/C=C\C(=O)O` (stereo unspecified): the Activity with Mus musculus [2] is on record as 23%; with Mus musculus [6], “Non-toxic”. In the data set with Mus musculus [3], the ED25 was 45 mg/kg. For the same compound, in data set [4], the MTD at 504 h was determined as 75 mg/kg.
Regarding `CC(C)NCC(O)COc1c(C(C)(C)C)cc(-c2ccccc2)cc1C(C)(C)C.Cl` (stereo unspecified), the Activity in the data set on Mus musculus [2] was 28%; in the data set with Mus musculus [6], “Toxic”; with Rattus norvegicus [9], 51%; in the data set on Rattus norvegicus [10], 4%; with Rattus norvegicus [11] it was 28%; in the data set on Rattus norvegicus [12], 16%. In addition, the Activity in the data set on Rattus norvegicus [13] came out at 21%. For the same compound, in the data set with Mus musculus [3], the ED25 turned out to be 20 mg/kg. The MTD at 504 h in data set [4] came to 100 mg/kg. Moreover, the selectivity ratio in data set [5] was found to be 5.
